The results in this text go back to PMC6271477, “Effects of Single Amino Acid Substitution on the Biophysical Properties and Biological Activities of an Amphipathic α-Helical Antibacterial Peptide Against Gram-Negative Bacteria” (Molecules, 2014).

Data set [1] is described as follows: CD spectroscopy, helicity in benign buffer and in 50% TFE. The settings on record: for [θ]222, mean residue molar ellipticity, benign / [θ]222, mean residue molar ellipticity, 50% TFE: CD at 222 nm, peptide 75 μM; for [θ]222, mean residue molar ellipticity, benign / [θ]222, mean residue molar ellipticity, 50% TFE / % helix, 50% TFE: 25 °C; for [θ]222, mean residue molar ellipticity, benign: KP buffer (100 mM KCl, 50 mM K2HPO4/KH2PO4, pH 7.0); for [θ]222, mean residue molar ellipticity, 50% TFE / % helix, 50% TFE: KP buffer diluted 1:1 (v/v) with TFE; for % helix, 50% TFE / % helix, benign: relative to the molar ellipticity of peptide V16E in 50% TFE; for % helix, benign: KP buffer pH 7.0, 25 °C. In kind it is physicochemical. As for the experimental part:
The secondary structures of peptides were determined in benign buffer and in a hydrophobic environment (50% trifluoroethanol, TFE) to mimic the hydrophobic environment of the membrane. […] The principle of side chain interaction at the i to i + 3 and i to i + 4 positions has been used to promote α-helix stability, for example, the incorporation of Lys and Glu residues to stabilize electrostatic attractions. Thus, the helicity of peptide V16E in the presence of 50% TFE that presented the greatest value among all analogs should rely on the contribution of the electrostatic attraction of the side chain of K13 and E16, which stabilizes the helix. The relative helicity is 100% for peptide V16E in 50% TFE, showing the importance of the salt bridges of K13 and E16 to stabilize the helical structure. In general, subtle side-chain alterations by single amino acid substitutions made no significant changes on secondary structures both in aqueous and in hydrophobic environments (Table 2).
Circular dichroism spectra were measured with a 0.02 cm path length quartz cuvette on a Jasco J-810 spectropolarimeter (Jasco, Tokyo, Japan) at 25 °C. Data were collected from 250 to 190 nm at a sensitivity of 100 millidegrees, response time of 1 s, bandwidth of 1.0 nm and a scan speed of 100 nm/min. Peptides were measured at a concentration of 75 μM in a benign buffer (50 mM KH2PO4/K2HPO4, 100 mM KCl, pH 7) or the benign buffer mixed with 50% 2,2,2-trifluoroethanol (TFE). The mean residue molar ellipticities were calculated using the equation [θ] = θ/10lcMn, where θ is the ellipticity in millidegrees, l is the optical path length of the cuvette in centimeters, cM is the peptide concentration in mole/liter and n is the number of residues in the peptide.

The next data set concerns human red blood cells. The data set can be described thus: Hemolytic activity. Format: cell-based. The settings on record: peptide 1,000 μg/mL, 1% human erythrocytes in PBS, 37 °C for 4 h, absorbance at 540 nm, 100% = distilled water. As to the method: Peptide samples were serially diluted using phosphate-buffered saline (PBS) in 96-well plates (round-bottom) to give a volume of 60 μL of the sample solution in each well. Human erythrocytes that had been anticoagulated using EDTAK2 were collected by centrifugation (1,000 ×g) for 5 min, washed twice with PBS, then diluted to a concentration of 2% in PBS. The erythrocytes (60 μL of 2% solution) were added to each well to achieve a final concentration of 1% human erythrocytes per well, and the reactions were incubated at 37 °C for 4 h. The plates were then centrifuged for 10 min at 3000 rpm and the supernatant (80 μL) was transferred to a 96-well plate (flat-bottom). The release of hemoglobin was determined by measuring the absorbance of the supernatant at 540 nm. Peptide samples were diluted in a 2-fold series to determine the minimum concentration at which hemolysis occurred. Erythrocytes in PBS and distilled water were used as controls of 0% and 100% hemolysis, respectively. Hemolysis percentage was calculated by the absorbance of peptide at the concentration of 1,000 μg/mL and compared with the 100% hemolysis.

Data set [2] is described as follows: Dansyl-polymyxin B displacement assay (LPS binding affinity). On the set-up: species or system E. coli. The settings on record: LPS 3 μg/mL in 5 mM HEPES pH 7.2, 25 °C, fluorescence; result in words, Figure 5. As to the method: As most of the outer membrane is LPS, the affinity of peptide analogs to LPS of E. coli was further detected by dansyl-polymyxin B displacement assay. As it is the polar face of the molecule that binds LPS, and all the peptides V16A, V16S, V16G and P have the same number of positively charged residues on the polar face, they would be expected to have similar effects on LPS affinity (Figure 5).
Dansyl-polymyxin B was synthesized, purified and quantified as reported. It was then dissolved in HEPES buffer (5 mM, pH 7.2) at the concentration of 100 μM and the final concentration of LPS is 3 μg/mL in the same buffer. Fluorescence measurements were run on a Shimadzu RF-5301 spectrofluorometer using a 3 mL quartz cuvette with an excitation wavelength of 350 nm and an emission wavelength of 420 nm at 25 °C. For displacement assay, 15 μL of peptide solution (10 mg/mL) was titrated into the cuvette containing 2 mL LPS and 0.25 mL dansyl-polymyxin B, and the decrease in the observed fluorescence (percent inhibition) was recorded.

In the case of `CC[C@H](C)[C@H](NC(=O)[C@H](C)NC(=O)[C@H](CCCCN)NC(=O)[C@H](CC(C)C)NC(=O)[C@H](C)NC(=O)[C@@H](NC(=O)[C@H](Cc1cnc[nH]1)NC(=O)[C@H](CC(C)C)NC(=O)[C@@H](NC(=O)[C@@H](NC(=O)[C@H](CCCCN)NC(=O)[C@H](CCCCN)NC(=O)[C@H](C)NC(=O)[C@H](CO)NC(=O)[C@H](CCCCN)NC(=O)[C@H](Cc1ccccc1)NC(=O)[C@@H](NC(=O)[C@H](CCCCN)NC(=O)[C@H](CC(C)C)NC(=O)[C@H](Cc1ccccc1)NC(=O)[C@H](CO)NC(=O)[C@H](CCCCN)NC(=O)[C@H](Cc1c[nH]c2ccccc12)NC(=O)[C@H](CCCCN)NC(C)=O)[C@@H](C)O)[C@@H](C)O)C(C)C)[C@@H](C)O)C(=O)N[C@@H](CO)C(=O)N[C@@H](CO)C(N)=O` [P], in data set [1], the “[θ]222, mean residue molar ellipticity, benign” value was −2,592 degree·cm^2·dmol^−^1; the “[θ]222, mean residue molar ellipticity, 50% TFE” value is on record as −29,726 degree·cm^2·dmol^−^1; the “% helix, 50% TFE” value was determined as 98.9%; the “% helix, benign” value is given as 8.6%. Further, the “Hemolysis Percentage” value in the data set on human red blood cells was found to be 28.3%.
Regarding “Ac-KWKSFLKTFKSAKKTKLHTALKAISS-NH2 [Peptide V16K]”, in data set [2], the “Affinity to LPS (inhibition of dansyl-polymyxin B binding)” value is “more affinity than the Ser- or Gly-substituted peptides”. For the same compound, in data set [1], the “[θ]222, mean residue molar ellipticity, benign” value is on record as −1,990 degree·cm^2·dmol^−^1; the “[θ]222, mean residue molar ellipticity, 50% TFE” value is listed as −29,313 degree·cm^2·dmol^−^1; the “% helix, 50% TFE” value worked out at 97.5%; the “% helix, benign” value stood at 6.6%.
